Structures are written as SMILES. Where two headings read alike, the source gives them in different places.

Data set [1] is classed as physicochemical. Particulars: for XRPD: room temperature, two weeks.
Data set [2] can be described thus: Competition experiment between Formula I Form I and Formula I Form II in isopropyl acetate. The data set is classed as physicochemical. Particulars: Experiment 26; Form I 11 mg + Mixture II 55.4 mg in IPAc 889 mg; 75 mg/g; suspension. As to the method: A competition experiment between Formula I Form I and Formula I Form II was conducted by mixing Formula I Form I with isopropyl acetate, followed by adding Mixture II, a mixture of Formula I Form II and Formula I Form IV.

Data set [3] is described as follows: Competition experiment between Formula I Form II and Formula I Form IV in IPA/Water at 50° C. The data set is classed as physicochemical.
Setting [4] is: Experiment 023, wt % water 9.3, 1 day in suspension, Temp. 50.
[5] abbreviates: Experiment 030, wt % water 4.9, 1, 3 days in suspension, Temp. 50.
Where [6] appears, read: Experiment 033, wt % water 39.5, 3 days in suspension, Temp. 50.
The mark [7] stands for this setting: Experiment 034, wt % water 49.9, 1, 3 days in suspension, Temp. 50.

`CCC(CC)COC(=O)[C@H](C)N[P@](=O)(OC[C@H]1O[C@@](C#N)(c2ccc3c(N)ncnn23)[C@H](O)[C@@H]1O)Oc1ccccc1` [Formula I, (S)-2-ethylbutyl 2-(((S)-(((2R,3S,4R,5R)-5-(4-aminopyrrolo[2,1-f][1,2,4]triazin-7-yl)-5-cyano-3,4-dihydroxytetrahydrofuran-2-yl)methoxy)(phenoxy)phosphoryl)amino)propanoate]: the XRPD entry is “Partially converted to Form II” in data set [1] (Experiment 12, 1-propanol); “Partially converted to Form II” in data set [1] (Experiment 14, THF); “Partially converted to Form II” in data set [1] (Experiment 16, 2-propanol); “Form II” in data set [1] (Experiment 18, ACN); “Partially converted to Form II” in data set [1] (Experiment 20, DCM); “Form II” in data set [1] (Experiment 22, Ethanol). The XRPD entry was “Partially converted to Form II” in data set [1] (Experiment 24, MTBE); “Partially converted to Form II” in data set [1] (Experiment 26, 2MeTHF); “Form II” in data set [1] (Experiment 28, EtOAc/water); “Form II” in data set [1] (Experiment 30, MEK); “Form II” in data set [1] (Experiment 32, Ethanol/water aw 0.4).

Consider `CCC(CC)COC(=O)[C@H](C)N[P@](=O)(OC[C@H]1O[C@@](C#N)(c2ccc3c(N)ncnn23)[C@H](O)[C@@H]1O)Oc1ccccc1` [Formula I Form II, (S)-2-ethylbutyl 2-(((S)-(((2R,3S,4R,5R)-5-(4-aminopyrrolo[2,1-f][1,2,4]triazin-7-yl)-5-cyano-3,4-dihydroxytetrahydrofuran-2-yl)methoxy)(phenoxy)phosphoryl)amino)propanoate], for which the more stable form entry in data set [1] (several competition experiments) is given as “more stable form”.

`CCC(CC)COC(=O)[C@H](C)N[P@](=O)(OC[C@H]1O[C@@](C#N)(c2ccc3c(N)ncnn23)[C@H](O)[C@@H]1O)Oc1ccccc1` [Formula I Mixture II, (S)-2-ethylbutyl 2-(((S)-(((2R,3S,4R,5R)-5-(4-aminopyrrolo[2,1-f][1,2,4]triazin-7-yl)-5-cyano-3,4-dihydroxytetrahydrofuran-2-yl)methoxy)(phenoxy)phosphoryl)amino)propanoate]: in data set [2], the “Comment (form conversion)” value is “Form II in 1 day”. The DSC result in data set [3] (setting [4]) is on record as “Form II”; in data set [3] (setting [5]) it was “Form II”; in data set [3] (setting [6]), “Form II”; in data set [3] (setting [7]), “Form II”; in data set [3] (Experiment 037, wt % water 0.93, 2 days in suspension, Temp. 50, 22), “Form II”. The XRPD result in data set [3] (setting [4]), in data set [3] (setting [5]), in data set [3] (setting [6]) and in data set [3] (setting [7]) was “Form II” throughout. For the same compound, in data set [3] (IPA/Water (3/6 V/V) at 50° C. for several days, all experiments), the conversion of form result is given as “conversion to Formula I Form II”.

Consider `CCC(CC)COC(=O)[C@H](C)N[P@](=O)(OC[C@H]1O[C@@](C#N)(c2ccc3c(N)ncnn23)[C@H](O)[C@@H]1O)Oc1ccccc1` [Formula I Form I, (S)-2-ethylbutyl 2-(((S)-(((2R,3S,4R,5R)-5-(4-aminopyrrolo[2,1-f][1,2,4]triazin-7-yl)-5-cyano-3,4-dihydroxytetrahydrofuran-2-yl)methoxy)(phenoxy)phosphoryl)amino)propanoate], for which the “Comment (form conversion)” value in data set [2] is given as “Form II in 1 day”.

Source of the values: patent US12030906B2, “Crystalline forms of (s)-2-ethylbutyl 2-(((s)-(((2r,3s,4r,5r)-5-(4-aminopyrrolo[2,1-f] [1,2,4]triazin-7-yl)-5-cyano-3,4-dihydroxytetrahydrofuran-2-yl)methoxy) (phenoxy) phosphoryl)amino)propanoate” (priority 2017, dated 2024).
